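Grown in 96-well plates, cells were treated for 48 hours with each compound at five concentrations. Insufficient inhibition: endpoint recorded as highest concentration tested. Here, GI50 denotes the concentration required for 50% inhibition of growth.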 Calls of active or inactive are those of the source. No stated cut-off is given here; in the data, active = GI50 up to about 1.1 µM and inactive = higher.
Legend:
Assay in all cases: NCI-60 cell line screen, 48 h
ACHN = system: ACHN
EKVX = system: EKVX
HCC 2998 = system: HCC 2998
HCT-116 = system: HCT-116
HCT-15 = system: HCT-15
IGROV-1 = system: IGROV-1
MOLT-4 = system: MOLT-4
Malme-3M = system: Malme-3M
NCI-H23 = system: NCI-H23
NCI-H460 = system: NCI-H460
OVCAR-4 = system: OVCAR-4
RPMI-8226 = system: RPMI-8226
RXF 393 = system: RXF 393
SF-295 = system: SF-295
SF-539 = system: SF-539
SK-MEL-28 = system: SK-MEL-28
TK-10 = system: TK-10
UACC-62 = system: UACC-62
HOP-92 = system: HOP-92
SK-MEL-2 = system: SK-MEL-2

Measured: GI50

C(=N\c1ccc(-c2cc(-c3ccccc3)nc3ccc4ccccc4c23)cc1)/c1ccccc1
inactive: ACHN 34.6 µM | EKVX 18.1 µM | HCC 2998 11.4 µM | HCT-116 16.6 µM | IGROV-1 37.3 µM | MOLT-4 18.6 µM | Malme-3M 30.5 µM | NCI-H23 27.6 µM | NCI-H460 19.9 µM | OVCAR-4 2.39 µM | RPMI-8226 15.6 µM | RXF 393 9.68 µM | SF-295 10.9 µM | SF-539 16.5 µM | SK-MEL-28 14.1 µM | TK-10 22.3 µM | UACC-62 20.8 µM
8.26 µM: HCT-15

Cc1cc(C)nc(NS(=O)(=O)c2ccc(Nc3c4ccccc4nc4c(C(=O)Nc5ccc(S(=O)(=O)Nc6cc(C)on6)cc5)cccc34)cc2)n1
> 100 µM: HCT-15
inactive: ACHN 35.2 µM | EKVX 26.2 µM | HCC 2998 16.8 µM | HCT-116 16 µM | HOP-92 18.7 µM | IGROV-1 30.4 µM | MOLT-4 24.8 µM | Malme-3M 24.2 µM | NCI-H23 22.1 µM | NCI-H460 25.1 µM | OVCAR-4 22.6 µM | RPMI-8226 22 µM | RXF 393 20.9 µM | SF-295 22.8 µM | SF-539 16 µM | SK-MEL-28 23.6 µM | TK-10 26.8 µM | UACC-62 17.8 µM

COC(=O)CCc1ccc2c(c1)[C@H](C(=O)OC)[C@@H](c1ccc(O)cc1)O2
inactive: ACHN > 100 µM | EKVX > 100 µM | HCC 2998 > 100 µM | HCT-116 21.5 µM | HOP-92 > 100 µM | IGROV-1 > 100 µM | MOLT-4 35.6 µM | Malme-3M > 100 µM | NCI-H23 71.6 µM | NCI-H460 58.9 µM | OVCAR-4 > 100 µM | RPMI-8226 75.5 µM | SF-295 > 100 µM | SF-539 25.6 µM | SK-MEL-28 > 100 µM | SK-MEL-2 > 100 µM | TK-10 > 100 µM | UACC-62 > 100 µM
58.9 µM: HCT-15

Clc1ccc(C(Cc2ccccc2)c2c(Cl)nc(N3CCNCC3)nc2Cl)cc1 (stereo not drawn)
inactive: ACHN 13.6 µM | EKVX 17.9 µM | HCC 2998 6.3 µM | HCT-116 8.38 µM | HOP-92 8.57 µM | IGROV-1 11.9 µM | MOLT-4 4.01 µM | Malme-3M 14.3 µM | NCI-H23 18.2 µM | NCI-H460 12.1 µM | OVCAR-4 18.6 µM | RPMI-8226 13.7 µM | SF-295 19 µM | SF-539 14.5 µM | SK-MEL-28 13.7 µM | SK-MEL-2 16.8 µM | TK-10 17.5 µM | UACC-62 21 µM
4.06 µM: HCT-15

COc1ccccc1/N=N/c1c(-c2ccccc2)nn(C(=O)CC(=O)Nc2ccccc2Cl)c1-c1ccccc1
> 100 µM: HCT-15
inactive: ACHN > 100 µM | EKVX > 100 µM | HCC 2998 > 100 µM | HCT-116 > 100 µM | IGROV-1 > 100 µM | MOLT-4 81.8 µM | Malme-3M > 100 µM | NCI-H23 > 100 µM | NCI-H460 > 100 µM | OVCAR-4 > 100 µM | RPMI-8226 65.5 µM | RXF 393 24.6 µM | SF-295 > 100 µM | SF-539 > 100 µM | SK-MEL-28 > 100 µM | TK-10 > 100 µM | UACC-62 > 100 µM

CC1(C)Oc2ccc3c(=O)cc(-c4ccc(F)cc4)oc3c2C1C(=O)O (stereo not drawn)
inactive: EKVX > 100 µM | HCC 2998 > 100 µM | HCT-116 > 100 µM | IGROV-1 > 100 µM | MOLT-4 > 100 µM | Malme-3M > 100 µM | NCI-H23 > 100 µM | RXF 393 > 100 µM | SF-295 > 100 µM | SF-539 > 100 µM | SK-MEL-2 > 100 µM | TK-10 > 100 µM | UACC-62 > 100 µM

C[Si](C)(OCCS(=O)(=O)O)C1S(=O)(=O)OCCOS1(=O)=O
inactive: ACHN 35.9 µM | EKVX > 100 µM | HCC 2998 35.5 µM | HCT-116 67.1 µM | HOP-92 23.8 µM | IGROV-1 > 100 µM | MOLT-4 30.3 µM | Malme-3M > 100 µM | NCI-H23 53.8 µM | NCI-H460 31.7 µM | OVCAR-4 > 100 µM | RPMI-8226 > 100 µM | RXF 393 21.7 µM | SF-295 4.86 µM | SF-539 23.9 µM | SK-MEL-28 > 100 µM | TK-10 > 100 µM | UACC-62 13.7 µM
67.5 µM: HCT-15

CCC1CN2CCC3(c4ccccc4)CC(C(=O)OC)=CC1C23 (stereo not drawn)
17.6 µM: HCT-15
inactive: ACHN 16.6 µM | EKVX 13.5 µM | HCC 2998 16.7 µM | HCT-116 15.9 µM | HOP-92 11.7 µM | IGROV-1 20.4 µM | MOLT-4 49.2 µM | Malme-3M 15.9 µM | NCI-H23 15.4 µM | NCI-H460 17.7 µM | OVCAR-4 14.5 µM | RPMI-8226 21.3 µM | RXF 393 18.3 µM | SF-295 18.2 µM | SF-539 16.8 µM | SK-MEL-28 17.7 µM | TK-10 25.4 µM | UACC-62 15.9 µM

CCOC(=O)C(=O)Nc1cc(Cl)ccc1Cl
inactive: ACHN > 100 µM | EKVX > 100 µM | HCC 2998 > 100 µM | HCT-116 > 100 µM | HOP-92 > 100 µM | IGROV-1 > 100 µM | MOLT-4 > 100 µM | Malme-3M > 100 µM | NCI-H23 > 100 µM | NCI-H460 > 100 µM | OVCAR-4 > 100 µM | RPMI-8226 > 100 µM | SF-295 > 100 µM | SF-539 > 100 µM | SK-MEL-28 > 100 µM | SK-MEL-2 > 100 µM | TK-10 > 100 µM | UACC-62 > 100 µM
> 100 µM: HCT-15

COc1ccc(C(=O)Oc2c(C#N)sc3c2c(=O)n(-c2ccccc2)c(=S)n3-c2ccccc2)cc1
16.7 µM: HCT-15
inactive: ACHN 40.7 µM | EKVX 12.9 µM | HCC 2998 27.9 µM | HCT-116 18.1 µM | HOP-92 23.6 µM | IGROV-1 19.6 µM | MOLT-4 21 µM | NCI-H23 20.3 µM | NCI-H460 30.5 µM | OVCAR-4 28.1 µM | RPMI-8226 25.2 µM | RXF 393 21.8 µM | SF-295 35.7 µM | SF-539 21.6 µM | SK-MEL-28 53.6 µM | TK-10 28 µM | UACC-62 5.66 µM

CCCCCCCC(=O)OC[C@@H](C[As](=O)(O)O)OC(=O)CCCCCCC
inactive: ACHN 12.7 µM | EKVX 26.5 µM | HCC 2998 15.7 µM | HCT-116 10.6 µM | HOP-92 17.2 µM | IGROV-1 5.21 µM | MOLT-4 2.58 µM | Malme-3M 14.1 µM | NCI-H23 12.9 µM | OVCAR-4 11.9 µM | RPMI-8226 10.3 µM | RXF 393 4.97 µM | SF-295 15.1 µM | SF-539 10.5 µM | SK-MEL-28 13.5 µM | UACC-62 11.3 µM
10.1 µM: HCT-15
